Reference: the OligoGym collection
After the bases stand the sugars from the 5' end (letter, count) and the backbone: PS all phosphorothioate, else s phosphorothioate and o phosphodiester by linkage. Methylation of C is not given here. e = 2'-O-(2-methoxyethyl) (MOE); k = constrained ethyl (cEt); d = 2'-deoxy (DNA); m = 2'-O-methyl

Molecular target: HSD17B13
Details: ASO, HepaRG

Row | Sequence | target mRNA inhibition (1 µM) [%] | also measured
1 | ATGATGTTCATGGCTT (sugars k3 d10 k3, PS) | 72 | –
2 | TCTGGGACCAAGGATA (sugars k3 d1 m1 d8 k3, PS) | 31 | –
3 | AGAGUCGGTCACCTTT (sugars k3 d1 m1 d8 k3, PS) | 55 | –
4 | CTGGAACAATATGGGA (sugars k3 d1 m1 d9 k2, PS) | 45 | –
5 | ATCGATGGAAGAAGTG (sugars k3 d10 k3, PS) | 39 | –
6 | CTCTGTGAAAGCCAAC (sugars k3 d10 k3, PS) | 50 | –
7 | TAGCTTTTGTCCACCT (sugars k3 d10 k3, PS) | 60 | –
8 | TAGCCAGTACAGTTCC (sugars kkdddddddddkekek, PS) | 57 | –
9 | TATCAAAATGGTGGCG (sugars k3 d10 k3, PS) | 18 | –
10 | GTCATAAAAATCGCTG (sugars k3 d10 k3, PS) | 72 | target mRNA inhibition (0.02 µM): 25%; target mRNA inhibition (0.078 µM): 34%; target mRNA inhibition (0.313 µM): 51%; target mRNA inhibition (1.25 µM): 70%; target mRNA inhibition (5 µM): 86%
11 | GATGTAGTGGGAGTCG (sugars kkdddddddddkekek, PS) | 38 | –
12 | ATTTTCAGATCCCGTT (sugars k3 d10 k3, PS) | 67 | –
13 | CTTGATCTCTTAGCTG (sugars k3 d9 k3 e1, PS) | 36 | –
14 | TTTCTTATTGGTAAGT (sugars k3 d10 k3, PS) | 44 | –
15 | GCTATAGTAATTGCTA (sugars k3 d10 k3, PS) | 33 | –
16 | TGAGCTAGACAATTGC (sugars k3 d10 k3, PS) | 78 | –
17 | CTACACTAATATTGAG (sugars kkdddddddddkekek, PS) | 5 | –
18 | TTTATGTAAGCACAGA (sugars k3 d10 k3, PS) | 70 | –
19 | GTAATCACAAGTAAGG (sugars k3 d9 k3 e1, PS) | 56 | –
20 | TGGGACCAAGGATATA (sugars kkdddddddddkekek, PS) | 30 | –
21 | TAACTGAGCTAGACAA (sugars k3 d10 k3, PS) | 53 | –
22 | TAAACTAGTGGTAATG (sugars k3 d10 k3, PS) | 14 | –
23 | CATTTTTAATACGACT (sugars k3 d10 k3, PS) | 57 | –
24 | AGTTTTCACCTCAGGT (sugars k3 d10 k3, PS) | 82 | –
25 | AATTCACCTTGACTAA (sugars k3 d1 m1 d8 k3, PS) | 0 | –

Row | Sequence | target mRNA inhibition (1 µM) [%] | also measured
26 | ATTTAGAAACTGCTCC (sugars k3 d10 k3, PS) | 21 | –
27 | GATAATTTGGTGTCAT (sugars k3 d10 k3, PS) | 59 | –
28 | GTCTTAAACCTTCCCT (sugars k3 d9 k3 e1, PS) | 50 | –
29 | ACCACACTAATGAATC (sugars k3 d10 k3, PS) | 54 | –
30 | ATATATACCTGTTGCC (sugars k3 d10 k3, PS) | 28 | –
31 | GCAATGAGATTACCCC (sugars k3 d10 k3, PS) | 83 | target mRNA inhibition (0.02 µM): 3%; target mRNA inhibition (0.078 µM): 26%; target mRNA inhibition (0.313 µM): 58%; target mRNA inhibition (1.25 µM): 83%; target mRNA inhibition (5 µM): 89%
32 | CTTCAGAGTTATACAG (sugars k3 d10 k3, PS) | 35 | –
33 | TTGATATTCTGTGGCA (sugars k3 d9 k3 e1, PS) | 76 | target mRNA inhibition (0.02 µM): 0%; target mRNA inhibition (0.078 µM): 0%; target mRNA inhibition (0.313 µM): 25%; target mRNA inhibition (1.25 µM): 51%; target mRNA inhibition (5 µM): 55%
34 | ATCTTAAGGATCATTG (sugars k3 d10 k3, PS) | 7 | –
35 | CATATCTTACTCTGTG (sugars k3 d10 k3, PS) | 47 | –
36 | AAAATAGAGTCGGTCA (sugars kkdddddddddkekek, PS) | 53 | –
37 | GGAACAATATGGGATG (sugars k3 d10 k3, PS) | 36 | –
38 | ATCTUATAAGACTATA (sugars k3 d1 m1 d8 k3, PS) | 35 | –
39 | AGAATAGTCTTCAGCA (sugars k3 d10 k3, PS) | 80 | –
40 | TCTTAAGATACCCAGG (sugars kkdddddddddkekek, PS) | 35 | –
41 | TAATACATTAGCAAGC (sugars k3 d1 m1 d8 k3, PS) | 26 | –
42 | TAATTCTAAACTAGTG (sugars k3 d10 k3, PS) | 11 | –
43 | TGCTGCATTAATGCCA (sugars k3 d10 k3, PS) | 15 | –
44 | ATAACCATAGGACATG (sugars k3 d10 k3, PS) | 70 | target mRNA inhibition (0.02 µM): 37%; target mRNA inhibition (0.078 µM): 38%; target mRNA inhibition (0.313 µM): 58%; target mRNA inhibition (1.25 µM): 84%; target mRNA inhibition (5 µM): 92%
45 | TGTTGATATTCTGTGG (sugars k3 d10 k3, PS) | 68 | –
46 | GGTAATTAATCTTGTT (sugars k3 d10 k3, PS) | 58 | –
47 | GTCTTGGTAATCTCTT (sugars k3 d10 k3, PS) | 37 | –
48 | TGCAGCATTGATTCGA (sugars k3 d9 k3 e1, PS) | 52 | –
49 | TAAAATAGAGTCGGTC (sugars k3 d9 k3 e1, PS) | 74 | target mRNA inhibition (0.02 µM): 0%; target mRNA inhibition (0.078 µM): 12%; target mRNA inhibition (0.313 µM): 31%; target mRNA inhibition (1.25 µM): 55%; target mRNA inhibition (5 µM): 77%
50 | CCTTTGTATTTCGCTA (sugars k3 d10 k3, PS) | 47 | –

Row | Sequence | target mRNA inhibition (1 µM) [%] | also measured
51 | GCAGCATTGATTCGAA (sugars k3 d10 k3, PS) | 63 | –
52 | GAGAAATCTAAGAACC (sugars k3 d10 k3, PS) | 42 | –
53 | TTGACTGCTGCTAGTG (sugars k3 d10 k3, PS) | 30 | –
54 | AAGTAGATGGTAAGTC (sugars k3 d10 k3, PS) | 85 | target mRNA inhibition (0.02 µM): 7%; target mRNA inhibition (0.078 µM): 42%; target mRNA inhibition (0.313 µM): 67%; target mRNA inhibition (1.25 µM): 89%; target mRNA inhibition (5 µM): 95%
55 | TCTAAAGGGCTGCTCT (sugars k3 d10 k3, PS) | 33 | –
56 | AAGTTTTGGGACCAAT (sugars k3 d10 k3, PS) | 11 | –
57 | AGGCTAAAATGGTCAT (sugars k3 d10 k3, PS) | 36 | –
58 | AATAATAGCTCTATTG (sugars k3 d9 k3 e1, PS) | 3 | –
59 | TTGCAAAATGTGATGC (sugars k3 d10 k3, PS) | 75 | –
60 | GTGGGATAAACTGTTC (sugars k3 d10 k3, PS) | 52 | –
61 | TAATGTATGAGGTCTC (sugars k3 d10 k3, PS) | 51 | –
62 | AAAGCCCTATTCTTCG (sugars k3 d10 k3, PS) | 65 | –
63 | GATGGTGATCAGAAGC (sugars k3 d10 k3, PS) | 52 | –
64 | ACTACAAGAGGTTATT (sugars k3 d1 m1 d8 k3, PS) | 29 | –
65 | TATCAGACTTCTTACG (sugars k3 d9 k3 e1, PS) | 28 | –
66 | TGCACCGTTTTGGGCT (sugars k3 d1 m1 d8 k3, PS) | 55 | –
67 | GTCCAGGTTGAGATAA (sugars kkdddddddddkekek, PS) | 36 | –
68 | AAAATCGCTGCTTAGT (sugars k3 d10 k3, PS) | 35 | –
69 | GAGATTACCCCTGGCT (sugars k3 d10 k3, PS) | 72 | –
70 | CCACGATTGTTACATC (sugars k3 d10 k3, PS) | 42 | –
71 | TGTAAGAGTCAGTATC (sugars k3 d1 m1 d8 k3, PS) | 29 | –
72 | TTGAUCTCTTAGCTGT (sugars k3 d1 m1 d8 k3, PS) | 50 | –
73 | TTGAGCCTAAAATTGT (sugars k3 d10 k3, PS) | 36 | –
74 | GTGCTGAGAAGATCGG (sugars k3 d10 k3, PS) | 0 | –
75 | GACTATAAAAAGGGAG (sugars k3 d10 k3, PS) | 40 | –

Row | Sequence | target mRNA inhibition (1 µM) [%] | also measured
76 | GATGCTCCATAATAAT (sugars k3 d1 m1 d8 k3, PS) | 24 | –
77 | CTAAAATTGTCTAAAC (sugars k3 d10 k3, PS) | 35 | –
78 | TGAGAACAATCTCCCC (sugars k3 d10 k3, PS) | 69 | target mRNA inhibition (0.02 µM): 12%; target mRNA inhibition (0.078 µM): 30%; target mRNA inhibition (0.313 µM): 57%; target mRNA inhibition (1.25 µM): 84%; target mRNA inhibition (5 µM): 90%
79 | AATTCACCTTGACTAA (sugars kkdddddddddkekek, PS) | 9 | –
80 | GAACAGTTCAACTGAA (sugars k3 d10 k3, PS) | 10 | –
81 | TGCAATGAGATTACCC (sugars k3 d10 k3, PS) | 54 | –
82 | TAGTAATTGCTATAGT (sugars k3 d10 k3, PS) | 7 | –
83 | CTTAAGATACCCAGGT (sugars k3 d9 k3 e1, PS) | 45 | –
84 | ATCTATCAGACTTCTT (sugars k3 d1 m1 d8 k3, PS) | 34 | –
85 | ACATACGCATGCGCAG (sugars k3 d10 k3, PS) | 20 | –
86 | TATTAGTTGGCCTGCC (sugars k3 d10 k3, PS) | 14 | –
87 | TCACCTTTCATAATGT (sugars k3 d9 k3 e1, PS) | 41 | –
88 | AATGCTACTTGAACAG (sugars k3 d1 m1 d8 k3, PS) | 34 | –
89 | GCAATTTACTTTCAGC (sugars k3 d10 k3, PS) | 66 | –
90 | TCATAGTGGACTTCAT (sugars kkdddddddddkekek, PS) | 48 | –
91 | CTTTTTATAGACTGGG (sugars k3 d10 k3, PS) | 67 | –
92 | ATCCATATTCCCTGAT (sugars k3 d10 k3, PS) | 26 | –
93 | CCAGTAGGTGTGTTTC (sugars k3 d10 k3, PS) | 55 | –
94 | GTTAUTCTCTTGACAA (sugars k3 d1 m1 d8 k3, PS) | 29 | –
95 | AACTCTAAATACCCTT (sugars k3 d10 k3, PS) | 28 | –
96 | GATTAGTCTTGATGTA (sugars kkdddddddddkekek, PS) | 56 | –
97 | CGTAAAATTGTGTCTC (sugars k3 d10 k3, PS) | 43 | –
